Measurements: PMC11222147, “Host defence peptide plectasin targets bacterial cell wall precursor lipid II by a calcium-sensitive supramolecular mechanism” (Nature Microbiology, 2024)
Values after ≈ are worked out from the molar mass of the structure shown. Where a SMILES comes first, the peptide text is derived from it. Bridges are numbered along the chain shown (N, C = ends).

Test system: S. simulans 22
Assay: MIC assays under standard conditions
Type: cell-based, Staphylococcus simulans
Settings: for Minimum inhibitory concentration, S. simulans: Supplementary Table 1, 16–20 h
Method: Plectasin and analogues were serially diluted in cation-adjusted Mueller–Hinton broth (MHB) in round-bottom polypropylene 96-well plates (50 µl per well). Selected bacterial strains were grown from glycerol stocks on blood agar plates. Individual colonies were inoculated in TSB and incubated at 37 °C while shaking until OD600 reached 0.5. Bacterial suspensions were then diluted 100 times in cation-adjusted MHB and distributed (50 μl per well) over the microplate containing the diluted plectasin solutions. Plates were covered by a gas-permeable adhesive membrane and incubated at 37 °C while shaking. MICs were determined by visual inspection after 16–20 h (Staphylococcus) or 20–24 h (Streptococcus). For Streptococcus strains, the broth was additionally supplemented with 5% lysed horse blood, and the microplates were incubated under 5% CO2 atmosphere. In the assays, we used the following strains: S. simulans, S. pneumoniae serotype 8, S. pneumoniae ATCC6305 and Streptococcus pyogenes M3.

CSCC[C@@H]1NC(=O)[C@H](CC(=O)O)NC(=O)[C@H](CC(=O)O)NC(=O)[C@H](CCC(=O)O)NC(=O)[C@H](CC(=O)O)NC(=O)[C@H](Cc2c[nH]c3ccccc23)NC(=O)[C@@H]2CCCN2C(=O)CNC(=O)[C@H](CC(N)=O)NC(=O)[C@@H](NC(=O)CNC(=O)[C@H](Cc2ccccc2)NC(=O)CN)CSSC[C@@H]2NC(=O)[C@H](Cc3ccc(O)cc3)NC(=O)CNC(=O)CNC(=O)[C@H](CCCCN)NC(=O)[C@H](Cc3ccc(O)cc3)NC(=O)CNC(=O)[C@H](CCCCN)NC(=O)[C@H](CC(=O)O)NC(=O)[C@H](CO)NC(=O)[C@H](CCCCN)NC(=O)[C@@H]3CSSC[C@@H](C(=O)N[C@@H](Cc4ccc(O)cc4)C(=O)O)NC(=O)[C@H](CCCCN)NC(=O)[C@H](CSSC[C@H](NC(=O)[C@H](CCC(N)=O)NC1=O)C(=O)N[C@@H](Cc1c[nH]cn1)C(=O)N[C@@H](CC(N)=O)C(=O)N[C@@H](Cc1c[nH]cn1)C(=O)N3)NC(=O)[C@H](C(C)C)NC(=O)[C@H](Cc1ccccc1)NC(=O)CNC(=O)CNC(=O)[C@H](CCCCN)NC(=O)[C@H](C)NC2=O [I22D] (H-GFGCNGPWDEDDMQCHNHCKSDKGYKGGYCAKGGFVCKCY-OH; disulfide 4-30, 15-37, 19-39 (inferred); N-terminus and C-terminus assumed)
Minimum inhibitory concentration, S. simulans (cation-adjusted MHB, 37 °C): > 50 µg/mL

CSCC[C@@H]1NC(=O)[C@H](CC(=O)O)NC(=O)[C@H](CC(=O)O)NC(=O)[C@H](CCC(=O)O)NC(=O)[C@H](CC(=O)O)NC(=O)[C@H](Cc2c[nH]c3ccccc23)NC(=O)[C@@H]2CCCN2C(=O)CNC(=O)[C@H](CC(N)=O)NC(=O)[C@@H](NC(=O)CNC(=O)[C@H](Cc2ccccc2)NC(=O)CN)CSSC[C@@H]2NC(=O)[C@H](Cc3ccc(O)cc3)NC(=O)CNC(=O)CNC(=O)[C@H](CCCCN)NC(=O)[C@H](Cc3ccc(O)cc3)NC(=O)CNC(=O)[C@H](CCCCN)NC(=O)[C@H](Cc3ccccc3)NC(=O)[C@H](CO)NC(=O)[C@H](CCCCN)NC(=O)[C@@H]3CSSC[C@@H](C(=O)N[C@@H](Cc4ccc(O)cc4)C(=O)O)NC(=O)[C@H](CCCCN)NC(=O)[C@H](CSSC[C@H](NC(=O)[C@H](CCC(N)=O)NC1=O)C(=O)N[C@@H](Cc1c[nH]cn1)C(=O)N[C@@H](CC(N)=O)C(=O)N[C@@H](Cc1c[nH]cn1)C(=O)N3)NC(=O)[C@H](C(C)C)NC(=O)[C@H](Cc1ccccc1)NC(=O)CNC(=O)CNC(=O)[C@H](CCCCN)NC(=O)[C@H](C)NC2=O [I22F] (H-GFGCNGPWDEDDMQCHNHCKSFKGYKGGYCAKGGFVCKCY-OH; disulfide 4-30, 15-37, 19-39 (inferred); N-terminus and C-terminus assumed)
Minimum inhibitory concentration, S. simulans (cation-adjusted MHB, 37 °C): > 50 µg/mL

CSCC[C@@H]1NC(=O)[C@H](CC(=O)O)NC(=O)[C@H](CC(=O)O)NC(=O)[C@H](CCC(=O)O)NC(=O)[C@H](CC(=O)O)NC(=O)[C@H](Cc2c[nH]c3ccccc23)NC(=O)[C@@H]2CCCN2C(=O)CNC(=O)[C@H](CC(N)=O)NC(=O)[C@@H](NC(=O)CNC(=O)[C@H](Cc2ccccc2)NC(=O)CN)CSSC[C@@H]2NC(=O)[C@H](Cc3ccc(O)cc3)NC(=O)CNC(=O)CNC(=O)[C@H](CCCCN)NC(=O)[C@H](Cc3ccc(O)cc3)NC(=O)CNC(=O)[C@H](CCCCN)NC(=O)[C@H](CC(C)C)NC(=O)[C@H](CO)NC(=O)[C@H](CCCCN)NC(=O)[C@@H]3CSSC[C@@H](C(=O)N[C@@H](Cc4ccc(O)cc4)C(=O)O)NC(=O)[C@H](CCCCN)NC(=O)[C@H](CSSC[C@H](NC(=O)[C@H](CCC(N)=O)NC1=O)C(=O)N[C@@H](Cc1c[nH]cn1)C(=O)N[C@@H](CC(N)=O)C(=O)N[C@@H](Cc1c[nH]cn1)C(=O)N3)NC(=O)[C@H](C(C)C)NC(=O)[C@H](Cc1ccccc1)NC(=O)CNC(=O)CNC(=O)[C@H](CCCCN)NC(=O)[C@H](C)NC2=O [I22L] (H-GFGCNGPWDEDDMQCHNHCKSLKGYKGGYCAKGGFVCKCY-OH; disulfide 4-30, 15-37, 19-39 (inferred); N-terminus and C-terminus assumed)
Minimum inhibitory concentration, S. simulans (cation-adjusted MHB, 37 °C): 1,56 μg/mL

CSCC[C@@H]1NC(=O)[C@H](CC(=O)O)NC(=O)[C@H](CC(=O)O)NC(=O)[C@H](CCC(=O)O)NC(=O)[C@H](CC(=O)O)NC(=O)[C@H](Cc2c[nH]c3ccccc23)NC(=O)[C@@H]2CCCN2C(=O)CNC(=O)[C@H](CC(N)=O)NC(=O)[C@@H](NC(=O)CNC(=O)[C@H](Cc2ccccc2)NC(=O)CN)CSSC[C@@H]2NC(=O)[C@H](Cc3ccc(O)cc3)NC(=O)CNC(=O)CNC(=O)[C@H](CCCCN)NC(=O)[C@H](Cc3ccc(O)cc3)NC(=O)CNC(=O)[C@H](CCCCN)NC(=O)[C@H](C(C)C)NC(=O)[C@H](CO)NC(=O)[C@H](CCCCN)NC(=O)[C@@H]3CSSC[C@@H](C(=O)N[C@@H](Cc4ccc(O)cc4)C(=O)O)NC(=O)[C@H](CCCCN)NC(=O)[C@H](CSSC[C@H](NC(=O)[C@H](CCC(N)=O)NC1=O)C(=O)N[C@@H](Cc1c[nH]cn1)C(=O)N[C@@H](CC(N)=O)C(=O)N[C@@H](Cc1c[nH]cn1)C(=O)N3)NC(=O)[C@H](C(C)C)NC(=O)[C@H](Cc1ccccc1)NC(=O)CNC(=O)CNC(=O)[C@H](CCCCN)NC(=O)[C@H](C)NC2=O [I22V] (H-GFGCNGPWDEDDMQCHNHCKSVKGYKGGYCAKGGFVCKCY-OH; disulfide 4-30, 15-37, 19-39 (inferred); N-terminus and C-terminus assumed)
Minimum inhibitory concentration, S. simulans (cation-adjusted MHB, 37 °C): 1,56 μg/mL

CC[C@H](C)[C@@H]1NC(=O)[C@H](CO)NC(=O)[C@H](CCCCN)NC(=O)[C@@H]2CSSC[C@@H](C(=O)N[C@@H](Cc3ccc(O)cc3)C(=O)O)NC(=O)[C@H](CCCCN)NC(=O)[C@@H]3CSSC[C@H](NC(=O)[C@H](CCC(N)=O)NC(=O)[C@H](CCSC)NC(=O)[C@H](CC(=O)O)NC(=O)[C@H](CC(=O)O)NC(=O)[C@H](CCC(=O)O)NC(=O)[C@H](CC(=O)O)NC(=O)[C@H](Cc4c[nH]c5ccccc45)NC(=O)[C@@H]4CCCN4C(=O)CNC(=O)[C@H](CC(N)=O)NC(=O)[C@@H](NC(=O)CNC(=O)[C@H](Cc4ccccc4)NC(=O)CN)CSSC[C@H](NC(=O)[C@H](Cc4ccc(O)cc4)NC(=O)CNC(=O)CNC(=O)[C@H](CCCCN)NC(=O)[C@H](Cc4ccc(O)cc4)NC(=O)CNC(=O)[C@H](C)NC1=O)C(=O)N[C@@H](C)C(=O)N[C@@H](CCCCN)C(=O)NCC(=O)NCC(=O)N[C@@H](Cc1ccccc1)C(=O)N[C@@H](C(C)C)C(=O)N3)C(=O)N[C@@H](Cc1c[nH]cn1)C(=O)N[C@@H](CC(N)=O)C(=O)N[C@@H](Cc1c[nH]cn1)C(=O)N2 [K23A] (H-GFGCNGPWDEDDMQCHNHCKSIAGYKGGYCAKGGFVCKCY-OH; disulfide 4-30, 15-37, 19-39 (inferred); N-terminus and C-terminus assumed)
reduction in activity vs plectasin (from MIC of Table 1): fivefold to tenfold | MIC (standard conditions, cation-adjusted MHB, 37 °C, visual inspection after 16–20 h): 6.25 µg/mL (≈ 1.44 µM)

CC[C@H](C)[C@@H]1NC(=O)[C@H](CO)NC(=O)[C@H](CCCCN)NC(=O)[C@@H]2CSSC[C@@H](C(=O)N[C@@H](Cc3ccc(O)cc3)C(=O)O)NC(=O)[C@H](CCCCN)NC(=O)[C@@H]3CSSC[C@H](NC(=O)[C@H](CCC(N)=O)NC(=O)[C@H](CCSC)NC(=O)[C@H](CC(=O)O)NC(=O)[C@H](CC(=O)O)NC(=O)[C@H](CCC(=O)O)NC(=O)[C@H](CC(=O)O)NC(=O)[C@H](Cc4c[nH]c5ccccc45)NC(=O)[C@@H]4CCCN4C(=O)CNC(=O)[C@H](CC(N)=O)NC(=O)[C@@H](NC(=O)CNC(=O)[C@H](Cc4ccccc4)NC(=O)CN)CSSC[C@H](NC(=O)[C@H](Cc4ccc(O)cc4)NC(=O)CNC(=O)CNC(=O)[C@H](CCCCN)NC(=O)[C@H](Cc4c[nH]cn4)NC(=O)CNC(=O)[C@H](CCCCN)NC1=O)C(=O)N[C@@H](C)C(=O)N[C@@H](CCCCN)C(=O)NCC(=O)NCC(=O)N[C@@H](Cc1ccccc1)C(=O)N[C@@H](C(C)C)C(=O)N3)C(=O)N[C@@H](Cc1c[nH]cn1)C(=O)N[C@@H](CC(N)=O)C(=O)N[C@@H](Cc1c[nH]cn1)C(=O)N2 [Y25H] (H-GFGCNGPWDEDDMQCHNHCKSIKGHKGGYCAKGGFVCKCY-OH; disulfide 4-30, 15-37, 19-39 (inferred); N-terminus and C-terminus assumed)
Minimum inhibitory concentration, S. simulans (cation-adjusted MHB, 37 °C): ≤ 0.78 µg/mL

CC[C@H](C)[C@@H]1NC(=O)CNC(=O)[C@H](CCCCN)NC(=O)[C@H]([C@@H](C)CC)NC(=O)[C@H](CO)NC(=O)[C@H](CCCCN)NC(=O)[C@@H]2CSSC[C@@H](C(=O)N[C@@H](Cc3ccc(O)cc3)C(=O)O)NC(=O)[C@H](CCCCN)NC(=O)[C@@H]3CSSC[C@H](NC(=O)[C@H](CCC(N)=O)NC(=O)[C@H](CCSC)NC(=O)[C@H](CC(=O)O)NC(=O)[C@H](CC(=O)O)NC(=O)[C@H](CCC(=O)O)NC(=O)[C@H](CC(=O)O)NC(=O)[C@H](Cc4c[nH]c5ccccc45)NC(=O)[C@@H]4CCCN4C(=O)CNC(=O)[C@H](CC(N)=O)NC(=O)[C@@H](NC(=O)CNC(=O)[C@H](Cc4ccccc4)NC(=O)CN)CSSC[C@H](NC(=O)[C@H](Cc4ccc(O)cc4)NC(=O)CNC(=O)CNC(=O)[C@H](CCCCN)NC1=O)C(=O)N[C@@H](C)C(=O)N[C@@H](CCCCN)C(=O)NCC(=O)NCC(=O)N[C@@H](Cc1ccccc1)C(=O)N[C@@H](C(C)C)C(=O)N3)C(=O)N[C@@H](Cc1c[nH]cn1)C(=O)N[C@@H](CC(N)=O)C(=O)N[C@@H](Cc1c[nH]cn1)C(=O)N2 [Y25I] (H-GFGCNGPWDEDDMQCHNHCKSIKGIKGGYCAKGGFVCKCY-OH; disulfide 4-30, 15-37, 19-39 (inferred); N-terminus and C-terminus assumed)
Minimum inhibitory concentration, S. simulans (cation-adjusted MHB, 37 °C): 6,25 μg/mL
